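These data come from cells grown in 96-well plates and exposed to compound for 48 hours at five concentrations. TGI is the concentration that stops growth completely.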
What follows are compounds tested on NCI-H226 lung (assay: NCI tumour cell line growth inhibition, 48 h).
With CNC(=O)OCc1nc(SC)n(C)c1COC(=O)NC the TGI was 400 µM. For O=C(O)CSc1n[nH]c(-c2ccco2)n1, the TGI was > 100 µM.

What follows are compounds tested on NCI-H23 lung (assay: NCI tumour cell line growth inhibition, 48 h).
Compound NC1=NCN(C2OC(CO)C(O)C2O)C(=O)N1 (configuration not stated) has a TGI of 1500 µM. In the case of CCCNCCCCC(NC(C)=O)C(=O)NCc1ccccc1 (configuration not stated), the TGI is reported as > 100 µM. CNC(=O)OCc1nc(SC)n(C)c1COC(=O)NC was tested, and the TGI was 329 µM. With O=C(O)CSc1n[nH]c(-c2ccco2)n1 the TGI was > 100 µM.

What follows are compounds tested on NCI-H460 lung (assay: NCI tumour cell line growth inhibition, 48 h).
NC1=NCN(C2OC(CO)C(O)C2O)C(=O)N1 (configuration not stated) gave a TGI of 294 µM. With CCCNCCCCC(NC(C)=O)C(=O)NCc1ccccc1 (configuration not stated) the TGI was > 100 µM. Work on CNC(=O)OCc1nc(SC)n(C)c1COC(=O)NC yielded a TGI of 264 µM. O=C(O)CSc1n[nH]c(-c2ccco2)n1 was tested, and the TGI was > 100 µM.

Each compound was assayed on NCI-H522 lung (assay: NCI tumour cell line growth inhibition, 48 h).
NC1=NCN(C2OC(CO)C(O)C2O)C(=O)N1 (configuration not stated) showed a TGI of 144 µM. CCCNCCCCC(NC(C)=O)C(=O)NCc1ccccc1 (configuration not stated) was tested, and the TGI was > 100 µM. For CNC(=O)OCc1nc(SC)n(C)c1COC(=O)NC, the TGI was 246 µM. O=C(O)CSc1n[nH]c(-c2ccco2)n1 was tested, and the TGI was > 100 µM.

These compounds were tested on NCI/ADR-RES ovarian (assay: NCI tumour cell line growth inhibition, 48 h).
NC1=NCN(C2OC(CO)C(O)C2O)C(=O)N1 (configuration not stated) was tested, and the TGI was 2270 µM. In the case of CNC(=O)OCc1nc(SC)n(C)c1COC(=O)NC, the TGI is reported as 535 µM.

These compounds were tested on OVCAR-3 ovarian (assay: NCI tumour cell line growth inhibition, 48 h).
NC1=NCN(C2OC(CO)C(O)C2O)C(=O)N1 (configuration not stated) showed a TGI of 361 µM. With CCCNCCCCC(NC(C)=O)C(=O)NCc1ccccc1 (configuration not stated) the TGI was > 100 µM. CNC(=O)OCc1nc(SC)n(C)c1COC(=O)NC was tested, and the TGI was 444 µM. With O=C(O)CSc1n[nH]c(-c2ccco2)n1 the TGI was > 100 µM.

Each compound was assayed on OVCAR-4 ovarian (assay: NCI tumour cell line growth inhibition, 48 h).
For NC1=NCN(C2OC(CO)C(O)C2O)C(=O)N1 (configuration not stated), the TGI was 1510 µM. For CCCNCCCCC(NC(C)=O)C(=O)NCc1ccccc1 (configuration not stated), the TGI was > 100 µM. Work on CNC(=O)OCc1nc(SC)n(C)c1COC(=O)NC yielded a TGI of 281 µM. With O=C(O)CSc1n[nH]c(-c2ccco2)n1 the TGI was > 100 µM.

What follows are compounds tested on OVCAR-5 ovarian (assay: NCI tumour cell line growth inhibition, 48 h).
Compound NC1=NCN(C2OC(CO)C(O)C2O)C(=O)N1 (configuration not stated) has a TGI of 2150 µM. For CCCNCCCCC(NC(C)=O)C(=O)NCc1ccccc1 (configuration not stated), the TGI was > 100 µM. CNC(=O)OCc1nc(SC)n(C)c1COC(=O)NC gave a TGI of 451 µM. For O=C(O)CSc1n[nH]c(-c2ccco2)n1, the TGI was > 100 µM.

Each compound was assayed on OVCAR-8 ovarian (assay: NCI tumour cell line growth inhibition, 48 h).
For NC1=NCN(C2OC(CO)C(O)C2O)C(=O)N1 (configuration not stated), the TGI was 1870 µM. With CCCNCCCCC(NC(C)=O)C(=O)NCc1ccccc1 (configuration not stated) the TGI was > 100 µM. In the case of CNC(=O)OCc1nc(SC)n(C)c1COC(=O)NC, the TGI is reported as 472 µM. In the case of O=C(O)CSc1n[nH]c(-c2ccco2)n1, the TGI is reported as > 100 µM.

These compounds were tested on P388 leukemia (assay: NCI tumour cell line growth inhibition, 48 h).
For NC1=NCN(C2OC(CO)C(O)C2O)C(=O)N1 (configuration not stated), the TGI was 229 µM. Work on CNC(=O)OCc1nc(SC)n(C)c1COC(=O)NC yielded a TGI of 331 µM.

Each compound was assayed on P388/ADR leukemia (assay: NCI tumour cell line growth inhibition, 48 h).
NC1=NCN(C2OC(CO)C(O)C2O)C(=O)N1 (configuration not stated) showed a TGI of 196 µM. With CNC(=O)OCc1nc(SC)n(C)c1COC(=O)NC the TGI was 611 µM.

These compounds were tested on PC-3 prostate (assay: NCI tumour cell line growth inhibition, 48 h).
NC1=NCN(C2OC(CO)C(O)C2O)C(=O)N1 (configuration not stated) showed a TGI of 1530 µM. CNC(=O)OCc1nc(SC)n(C)c1COC(=O)NC gave a TGI of 484 µM.

These compounds were tested on RPMI-8226 leukemia (assay: NCI tumour cell line growth inhibition, 48 h).
For NC1=NCN(C2OC(CO)C(O)C2O)C(=O)N1 (configuration not stated), the TGI was 159 µM. With CCCNCCCCC(NC(C)=O)C(=O)NCc1ccccc1 (configuration not stated) the TGI was > 100 µM. Compound CNC(=O)OCc1nc(SC)n(C)c1COC(=O)NC has a TGI of 736 µM. With O=C(O)CSc1n[nH]c(-c2ccco2)n1 the TGI was > 100 µM.

These compounds were tested on RXF 393 renal (assay: NCI tumour cell line growth inhibition, 48 h).
Compound NC1=NCN(C2OC(CO)C(O)C2O)C(=O)N1 (configuration not stated) has a TGI of 218 µM. In the case of CCCNCCCCC(NC(C)=O)C(=O)NCc1ccccc1 (configuration not stated), the TGI is reported as > 100 µM. CNC(=O)OCc1nc(SC)n(C)c1COC(=O)NC showed a TGI of 169 µM. For O=C(O)CSc1n[nH]c(-c2ccco2)n1, the TGI was > 100 µM.

Each compound was assayed on RXF-631 renal (assay: NCI tumour cell line growth inhibition, 48 h).
With CCCNCCCCC(NC(C)=O)C(=O)NCc1ccccc1 (configuration not stated) the TGI was > 100 µM. With O=C(O)CSc1n[nH]c(-c2ccco2)n1 the TGI was > 100 µM.

The compounds below were run on SF-268 CNS (assay: NCI tumour cell line growth inhibition, 48 h).
Compound NC1=NCN(C2OC(CO)C(O)C2O)C(=O)N1 (configuration not stated) has a TGI of 2460 µM. CCCNCCCCC(NC(C)=O)C(=O)NCc1ccccc1 (configuration not stated) was tested, and the TGI was > 100 µM. CNC(=O)OCc1nc(SC)n(C)c1COC(=O)NC gave a TGI of 450 µM.

The compounds below were run on SF-295 CNS (assay: NCI tumour cell line growth inhibition, 48 h).
In the case of NC1=NCN(C2OC(CO)C(O)C2O)C(=O)N1 (configuration not stated), the TGI is reported as 1460 µM. With CCCNCCCCC(NC(C)=O)C(=O)NCc1ccccc1 (configuration not stated) the TGI was > 100 µM. Work on CNC(=O)OCc1nc(SC)n(C)c1COC(=O)NC yielded a TGI of 551 µM. In the case of O=C(O)CSc1n[nH]c(-c2ccco2)n1, the TGI is reported as > 100 µM.

These compounds were tested on SF-539 CNS (assay: NCI tumour cell line growth inhibition, 48 h).
With NC1=NCN(C2OC(CO)C(O)C2O)C(=O)N1 (configuration not stated) the TGI was 342 µM. For CCCNCCCCC(NC(C)=O)C(=O)NCc1ccccc1 (configuration not stated), the TGI was > 100 µM. CNC(=O)OCc1nc(SC)n(C)c1COC(=O)NC showed a TGI of 299 µM. In the case of O=C(O)CSc1n[nH]c(-c2ccco2)n1, the TGI is reported as > 100 µM.

The compounds below were run on SK-MEL-2 melanoma (assay: NCI tumour cell line growth inhibition, 48 h).
Compound NC1=NCN(C2OC(CO)C(O)C2O)C(=O)N1 (configuration not stated) has a TGI of 7.06 µM. In the case of CCCNCCCCC(NC(C)=O)C(=O)NCc1ccccc1 (configuration not stated), the TGI is reported as > 100 µM. Work on CNC(=O)OCc1nc(SC)n(C)c1COC(=O)NC yielded a TGI of 290 µM.

— PubChem BioAssay (NCI)
